pIC50: −log10 of the molar value. Counter-ions that a name gives are not always drawn.
What was measured:
[1] = target: Cathepsin S (UniProt P25774); assay: Cathepsin enzyme inhibition assay (fluorogenic peptide substrate Z-Val-Val-Arg-AMC), Cathepsin S; assay type: biochemical, human and mouse; conditions: enzyme 1 nM, substrate 20 μM, pH 6.5; read-out: CatS IC50
In short: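 Compounds were combined with 1 nM human or mouse enzyme, and substrate then started the reaction. The buffer was potassium phosphate (100 mM, pH 6.5) containing EDTA-Na 5 mM, Triton X-100 0.001% and […] 5 mM.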

[2] = target: Cat L (UniProt P07711); assay: Cathepsin enzyme inhibition assay (fluorogenic peptide substrate Z-Val-Val-Arg-AMC), Cathepsin L; assay type: biochemical, human and mouse; conditions: enzyme 1 nM, substrate 20 μM, pH 6.5; read-out: CatL IC50
In short: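 Fluorogenic cleavage of Z-Val-Val-Arg-AMC (20 μM) by 1 nM Cat L was monitored at ex 360/em 465 nm for 20 min, the linear phase. The buffer was 100 mM potassium phosphate pH 6.5 with 5 mM EDTA and DTT. IC50 values were derived by standard methods, in μM.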

Row | pIC50 [1] | pIC50 [2] | Compound
1 | 9.10 | 5.03 | C[C@H](Oc1ccc(S(=O)(=O)[C@@H]2C[C@@H](C(=O)NC3(C#N)CC3)N(C(=O)C(C)(C)C)C2)c(Cl)c1)C(F)(F)F [Example 203, (2S,4R)-4-[2-Chloro-4-((S)-2,2,2-trifluoro-1-methyl-ethoxy)-benzenesulfonyl]-1-(2,2-dimethyl-propionyl)-pyrrolidine-2-carboxylic acid (1-cyano-cyclopropyl)-amide]
2 | 9.30 | ≤ 4.60 | N#CCNC(=O)[C@@H]1C[C@@H](S(=O)(=O)c2ccccc2C(F)(F)F)CN1C(=O)c1ccccc1 [Example 71, (2S,4R)-1-Benzoyl-4-(2-trifluoromethyl-benzenesulfonyl)-pyrrolidine-2-carboxylic acid cyanomethyl-amide]
3 | 9.52 | 4.38 | Cc1cc(N2C[C@H](S(=O)(=O)c3ccccc3C(F)(F)F)C[C@H]2C(=O)NC2(C#N)CC2)n(-c2cc[nH]c(=O)c2)n1 [Example 196, (2S,4R)-1-[5-Methyl-2-(2-oxo-1,2-dihydro-pyridin-4-yl)-2H-pyrazol-3-yl]-4-(2-trifluoromethyl-benzenesulfonyl)-pyrrolidine-2-carboxylic acid (1-cyano-cyclopropyl)-amide]
4 | 9.22 | 7.66 | N#CC1(NC(=O)[C@@H]2C[C@@H](S(=O)(=O)c3ccccc3Cl)CN2C(=O)C2(c3ccc(Cl)cc3Cl)CC2)CC1 [Example 443, (2S,4R)-4-(2-Chloro-benzenesulfonyl)-1-[1-(2,4-dichloro-phenyl)-cyclopropanecarbonyl]-pyrrolidine-2-carboxylic acid (1-cyano-cyclopropyl)-amide]
5 | 8.72 | 5.10 | COc1cccc(-n2nc(C)cc2N2C[C@H](S(=O)(=O)c3ccccc3C(F)(F)F)C[C@H]2C(=O)NC2(C#N)CC2)c1 [Example 333, (2S,4R)-1-[2-(3-Methoxy-phenyl)-5-methyl-2H-pyrazol-3-yl]-4-(2-trifluoromethyl-benzenesulfonyl)-pyrrolidine-2-carboxylic acid (1-cyano-cyclopropyl)-amide]
6 | 5.21 | ≤ 4.60 | CC(C)(C)c1ccc(C2NC(C(=O)NC3(C#N)CC3)CC2S(=O)(=O)c2ccccc2)cc1 (stereo not drawn) [Example 447, 4-Benzenesulfonyl-5-(4-tert-butyl-phenyl)-pyrrolidine-2-carboxylic acid (1-cyano-cyclopropyl)-amide]
7 | 5.99 | ≤ 4.60 | CC(C)(C)OC(=O)N1C[C@H](S(=O)(=O)c2ccccc2Cl)C[C@H]1C(=O)NC(C)(C#N)c1ccccc1 (stereo partly drawn) [Example 37, (2S,4R)-4-(2-Chloro-benzenesulfonyl)-2-[(cyano-methyl-phenyl-methyl)-carbamoyl]-pyrrolidine-1-carboxylic acid tert-butyl ester]
8 | 10.70 | 6.00 | N#CC1(NC(=O)[C@@H]2C[C@@H](S(=O)(=O)c3ccccc3C(F)(F)F)CN2C(=O)C2(c3ccc(Cl)nc3)CC2)CC1 [Example 361, (2S,4R)-1-[1-(6-Chloro-pyridin-3-yl)-cyclopropanecarbonyl]-4-(2-trifluoromethyl-benzenesulfonyl)-pyrrolidine-2-carboxylic acid (1-cyano-cyclopropyl)-amide]
9 | 7.80 | ≤ 4.60 | N#CC1(NC(=O)[C@@H]2C[C@@H](S(=O)(=O)c3ccc(-n4cccn4)cc3Cl)CN2C=O)CC1 [Example 148, (2S,4R)-4-(2-Chloro-4-pyrazol-1-yl-benzenesulfonyl)-1-formyl-pyrrolidine-2-carboxylic acid (1-cyano-cyclopropyl)-amide]
10 | 5.78 | ≤ 4.60 | CC1(C(=O)N2C[C@H](S(=O)(=O)CC3CC3)C[C@H]2C(=O)NC2(C#N)CC2)CC1 [Example 454, (2S,4R)-4-Cyclopropylmethanesulfonyl-1-(1-methyl-cyclopropanecarbonyl)-pyrrolidine-2-carboxylic acid (1-cyano-cyclopropyl)-amide]
11 | 5.61 | ≤ 4.60 | CC(C)(C)c1ccccc1N1CC(S(=O)(=O)c2ccccc2C(F)(F)F)CC1C(=O)NC1(C#N)CC1 (stereo not drawn) [Example 355, 1-(2-tert-Butyl-phenyl)-4-(2-trifluoromethyl-benzenesulfonyl)-pyrrolidine-2-carboxylic acid (1-cyano-cyclopropyl)-amide]
12 | 9.52 | 4.19 | CC1(C(=O)N2C[C@H](S(=O)(=O)c3ccc(OCC(F)(F)F)cc3C(F)(F)F)C[C@H]2C(=O)NC2(C#N)CC2)CC1 [Example 211, (2S,4R)-1-(1-Methyl-cyclopropanecarbonyl)-4-[4-(2,2,2-trifluoro-ethoxy)-2-trifluoromethyl-benzenesulfonyl]-pyrrolidine-2-carboxylic acid (1-cyano-cyclopropyl)-amide]
13 | 9.40 | 5.10 | N#CC1(NC(=O)[C@@H]2C[C@@H](S(=O)(=O)c3ccccc3Cl)CN2C(=O)C2(C(F)(F)F)CC2)CC1 [Example 213, (2S,4R)-4-(2-Chloro-benzenesulfonyl)-1-(1-trifluoromethyl-cyclopropanecarbonyl)-pyrrolidine-2-carboxylic acid (1-cyano-cyclopropyl)-amide]
14 | 9.92 | 5.81 | N#CC1(NC(=O)[C@@H]2C[C@@H](S(=O)(=O)c3ccc(N4CCn5cnnc5C4)cc3Cl)CN2C(=O)C2(C(F)(F)F)CC2)CC1 [Example 301, (2S,4R)-4-[2-Chloro-4-(5,6-dihydro-8H-[1,2,4]triazolo[4,3-a]pyrazin-7-yl)-benzenesulfonyl]-1-(1-trifluoromethyl-cyclopropanecarbonyl)-pyrrolidine-2-carboxylic acid (1-cyano-cyclopropyl)-amide]
15 | 8.59 | ≤ 4.60 | Cc1nccn1-c1ccc(S(=O)(=O)[C@H]2CN[C@H](C(=O)NC3(C#N)CC3)C2)c(C(F)(F)F)c1 [Example 24, (2S,4R)-4-[4-(2-M ethyl-imidazol-1-yl)-2-trifluoromethyl-benzenesulfonyl]-pyrrolidine-2-carboxylic acid (1-cyano-cyclopropyl)-amide hydrochloride]
16 | 9.30 | 4.89 | N#CCNC(=O)[C@@H]1C[C@@H](S(=O)(=O)c2ccccc2Cl)CN1C(=O)C1CCCCC1 [Example 60, (2S,4R)-4-(2-Chloro-benzenesulfonyl)-1-cyclohexanecarbonyl-pyrrolidine-2-carboxylic acid cyanomethyl-amide]
17 | 9.41 | 5.03 | Cc1cccc(-n2nc(C)cc2N2C[C@H](S(=O)(=O)c3ccccc3C(F)(F)F)C[C@H]2C(=O)NC2(C#N)CC2)c1 [Example 276, (2S,4R)-1-(5-Methyl-2-m-tolyl-2H-pyrazol-3-yl)-4-(2-trifluoromethyl-benzenesulfonyl)-pyrrolidine-2-carboxylic acid (1-cyano-cyclopropyl)-amide]
18 | 9.22 | 4.93 | N#CC1(NC(=O)[C@@H]2C[C@@H](S(=O)(=O)c3ccc(F)cc3Cl)CN2C(=O)C2(C(F)(F)F)CC2)CC1 [Example 145, (2S,4R)-4-(2-Chloro-4-fluoro-benzenesulfonyl)-1-(1-trifluoromethyl-cyclopropanecarbonyl)-pyrrolidine-2-carboxylic acid (1-cyano-cyclopropyl)-amide]

— patent US8163793B2, “Proline derivatives” (Hoffman-La Roche Inc., priority 2009, dated 2012)
